What was measured:
[1] = Total and free testosterone in blood plasma 15 minutes after sublingual intake of the androgen(s); assay type: in vivo, human; settings: measured not calculated, 5 mg T or 5 mg T + 5 mg DHT
Method: Testosterone (T) vs. testosterone and dihydrotestosterone (T+DHT) The first example concerns two male heterosexual patients. Two alternative forms of testosterone administration were considered for a treatment. The first treatment involved taking 5 mg sublingual testosterone (T) (solution consisting of alcohol, denaturalized water, testosterone and cyclodextrins). The second consisted of simultaneously taking 5 mg sublingual testosterone and 5 mg sublingual dihydrotestosterone (DHT) (solution consisting of alcohol, denaturalized water, DHT and cyclodextrins). The testosterone and DHT solutions were prepared by a pharmacist on the request of a general practitioner. Subsequently, the changes in total testosterone and free testosterone in blood plasma were examined, 15 minutes after intake of the androgen(s).
The table below describes the effects of the different treatments on ‘total testosterone’ and ‘free testosterone (i.e. measured, not calculated)’ for both patients:
This is consistent with the assumption that SHBG becomes more saturated as a result of the binding of DHT to SHBG. This means that the ingested testosterone can no longer bind to SHBG, and consequently there will be a greater increase in unbound testosterone (i.e. free testosterone). […] Total testosterone and free testosterone were measured 15 minutes after the administration of T and (T&DHT). dysfunction/disorder

[2] = sublingually with cyclodextrins (women about 0.1-2 mg; men about 0.5-20 mg); cited from earlier work
[3] = intranasal administration; cited from earlier work

| Compound | Free T ([1]; Patient 1, blood plasma) [pml/L] | Free T ([1]; Patient 2, blood plasma) [pml/L] | Time to pharmacological peak in testosterone and free testosterone [2] | Return of oxytocin levels to baseline [3] | T-max of oxytocin levels in the blood circulation [3] |
| --- | --- | --- | --- | --- | --- |
| C[C@]12CC[C@H]3[C@@H](CCC4=CC(=O)CC[C@@]43C)[C@@H]1CC[C@@H]2O [T, 17-β-hydroxyandrost-4-en-3-one] | 440 | 1030 | about 15 minutes |  |  |
| CC[C@H](C)[C@@H]1NC(=O)[C@H](Cc2ccc(O)cc2)NC(=O)[C@@H](N)CSSC[C@@H](C(=O)N2CCC[C@H]2C(=O)N[C@@H](CC(C)C)C(=O)NCC(N)=O)NC(=O)[C@H](CC(N)=O)NC(=O)[C@H](CCC(N)=O)NC1=O [oxytocin] |  |  |  | approximately 90 minutes | approximately 15 minutes |
